# Experiments:
# BT-549 = test: NCI 60 cell line single dose screen (SRB); format: cell-based; details: Homo sapiens; BT-549 (breast cancer), single dose 10^−5 M, 48 h; read-out: Growth inhibition percentage
# Summary of the method: (§1)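 Cells were plated and grown 24 h at 37 °C, 5% CO2 before compound addition from DMSO stock, then exposed 48 h. Adherent cells were fixed with cold TCA (final 10%) and suspension cells with 16% TCA. SRB-stained protein was read at 515 nm and percent growth was calculated against time-zero and untreated plates.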
# HOP-62 = test: NCI 60 cell line single dose screen (SRB); format: cell-based; details: Homo sapiens; HOP-62 (non-small cell lung cancer), single dose 10^−5 M, 48 h; read-out: Growth inhibition percentage
# Summary of the method: as §1
# HOP-92 = test: NCI 60 cell line single dose screen (SRB); format: cell-based; details: Homo sapiens; HOP-92 (non-small cell lung cancer), single dose 10^−5 M, 48 h; read-out: Growth inhibition percentage
# Summary of the method: as §1
# HT29 = test: NCI 60 cell line single dose screen (SRB); format: cell-based; details: Homo sapiens, HT-29; HT29 (colon cancer), single dose 10^−5 M, 48 h; read-out: Growth inhibition percentage
# Summary of the method: as §1
# K-562 = test: NCI 60 cell line single dose screen (SRB); format: cell-based; details: Homo sapiens, K562; K-562 (leukemia), single dose 10^−5 M, 48 h; read-out: Growth inhibition percentage
# Summary of the method: as §1
# LOX IMVI = test: NCI 60 cell line single dose screen (SRB); format: cell-based; details: Homo sapiens; LOX IMVI (melanoma), single dose 10^−5 M, 48 h; read-out: Growth inhibition percentage
# Summary of the method: as §1
# MDA-MB-231/ATCC = test: NCI 60 cell line single dose screen (SRB); format: cell-based; details: Homo sapiens; MDA-MB-231/ATCC (breast cancer), single dose 10^−5 M, 48 h; read-out: Growth inhibition percentage
# Summary of the method: as §1
# MOLT-4 = test: NCI 60 cell line single dose screen (SRB); format: cell-based; details: Homo sapiens; MOLT-4 (leukemia), single dose 10^−5 M, 48 h; read-out: Growth inhibition percentage
# Summary of the method: as §1
# NCI-H522 = test: NCI 60 cell line single dose screen (SRB); format: cell-based; details: Homo sapiens; NCI-H522 (non-small cell lung cancer), single dose 10^−5 M, 48 h; read-out: Growth inhibition percentage
# Summary of the method: as §1
# RXF 393 = test: NCI 60 cell line single dose screen (SRB); format: cell-based; details: Homo sapiens; RXF 393 (renal cancer), single dose 10^−5 M, 48 h; read-out: Growth inhibition percentage
# Summary of the method: as §1
# SF-593 = test: NCI 60 cell line single dose screen (SRB); format: cell-based; details: Homo sapiens, SF-593 (CNS cancer), single dose 10^−5 M, 48 h, read-out: Growth inhibition percentage
# Summary of the method: as §1
# SR = test: NCI 60 cell line single dose screen (SRB); format: cell-based; details: Homo sapiens; SR (leukemia), single dose 10^−5 M, 48 h; read-out: Growth inhibition percentage
# Summary of the method: as §1
# SW-620 = test: NCI 60 cell line single dose screen (SRB); format: cell-based; details: Homo sapiens; SW-620 (colon cancer), single dose 10^−5 M, 48 h; read-out: Growth inhibition percentage
# Summary of the method: as §1
# T-47D = test: NCI 60 cell line single dose screen (SRB); format: cell-based; details: Homo sapiens, T47D; T-47D (breast cancer), single dose 10^−5 M, 48 h; read-out: Growth inhibition percentage
# Summary of the method: as §1
# TK-10 = test: NCI 60 cell line single dose screen (SRB); format: cell-based; details: Homo sapiens; TK-10 (renal cancer), single dose 10^−5 M, 48 h; read-out: Growth inhibition percentage
# Summary of the method: as §1
# UACC-257 = test: NCI 60 cell line single dose screen (SRB); format: cell-based; details: Homo sapiens; UACC-257 (melanoma), single dose 10^−5 M, 48 h; read-out: Growth inhibition percentage
# Summary of the method: as §1
Structure (SMILES),inhibition at 10 µM (BT-549) [%],inhibition at 10 µM (HOP-62) [%],inhibition at 10 µM (HOP-92) [%],inhibition at 10 µM (HT29) [%],inhibition at 10 µM (K-562) [%],inhibition at 10 µM (LOX IMVI) [%],inhibition at 10 µM (MDA-MB-231/ATCC) [%],inhibition at 10 µM (MOLT-4) [%],inhibition at 10 µM (NCI-H522) [%],inhibition at 10 µM (RXF 393) [%],inhibition at 10 µM (SF-593) [%],inhibition at 10 µM (SR) [%],inhibition at 10 µM (SW-620) [%],inhibition at 10 µM (T-47D) [%],inhibition at 10 µM (TK-10) [%],inhibition at 10 µM (UACC-257) [%],melting point [°C]
"COc1ccc(N2CCN(c3ncnc4c3c(C)nn4-c3ccc(F)cc3)CC2)cc1 [Compound 8d, 1–(4-Fluorophenyl)-4–(4-(4-methoxyphenyl)piperazin-1-yl)-3-methyl-1H-pyrazolo[3,4-d]pyrimidine]",2.13,1.51,4.73,-1.26,-4,0.28,2.36,3.49,3.59,-9.45,8.43,8.97,-0.63,3.85,-48,-6.35,
"Cc1nn(-c2ccc(F)cc2)c2ncnc(N3CCN(c4ccc(Cl)cc4)CC3)c12 [Compound 8c, 4–(4-(4-Chlorophenyl)piperazin-1-yl)-1–(4-fluorophenyl)-3-methyl-1H-pyrazolo[3,4-d]pyrimidine]",-4.23,4.05,15.9,5.97,11.4,4.93,7.92,7.19,8.23,-16.5,3.89,11,-3.16,10.3,-30.9,-0.44,167 to 169
"Cc1nn(-c2ccc(F)cc2)c2ncnc(Cl)c12 [Compound 6, 4-Chloro-1–(4-fluorophenyl)-3-methyl-1H-pyrazolo[3,4-d]pyrimidine]",-11.5,15.4,7.91,9.55,15.4,6.64,10.8,13.8,59,-3.61,-7.81,14.4,-2.88,0.28,-23,17.4,178 to 180
"Cc1nn(-c2ccc(F)cc2)c2ncnc(Nc3ccc(F)c(Cl)c3)c12 [Compound 7d, N-(3-Chloro-4-fluorophenyl)-1–(4-fluorophenyl)-3-methyl-1H-pyrazolo[3,4-d] pyrimidin-4-amine]",-4.84,38.7,22.8,14.4,1.78,8.68,14.2,4.27,10.4,-0.39,22.6,25.4,11.1,27.4,-6.68,-1.41,
"Cc1nn(-c2ccc(F)cc2)c2ncnc(NN)c12 [Compound 9, 1–(4-Fluorophenyl)-4-hydrazinyl-3-methyl-1H-pyrazolo[3,4-d]-pyrimidine]",-10.8,4.27,13.4,1.62,-3.06,13.3,23.1,22.7,10.3,5.47,-0.7,20.2,-8.79,32,-51.2,-3.21,208 to 210

# Source: PMC6352943, “Novel pyrazolo[3,4-d]pyrimidines: design, synthesis, anticancer activity, dual EGFR/ErbB2 receptor tyrosine kinases inhibitory activity, effects on cell cycle profile and caspase-3-mediated apoptosis” (Journal of Enzyme Inhibition and Medicinal Chemistry, 2019)
